Assay results as given in patent US9815810B1, “Method of cannabinoid preservation through crystallization and other crystal structures” (Deep Cell […]., priority 2016, dated 2017).
Several values for one entry are separate records, joined by “and”; a condition that tells them apart may be missing. Equal values may be shown once.

Assay: Cannabinoid profile of crystalline product samples by HPLC-DAD-MS analysis (cannabinoid preservation)
Settings: average of Samples R103A-C; sucrose, without rapid cooling process

Compound | Cannabinoid quantity, Avg R103A-C
CCCCCc1cc(O)c2c(c1)OC(C)(CCC=C(C)C)C=C2 (centres unmarked) [CBC, Cannabichromene] | 0.45 mg/g
C=C(C)[C@@H]1CCC(C)=C[C@H]1c1c(O)cc(CCCCC)cc1O [CBD, Cannabidiol, reference compound] | No detectable quantities
C=C(C)[C@@H]1CCC(C)=C[C@H]1c1c(O)cc(CCCCC)c(C(=O)O)c1O [CBD-A, Cannabidiolic acid] | No detectable quantities
CCCCCc1cc(O)c(C/C=C(\C)CCC=C(C)C)c(O)c1 [CBG, Cannabigerol] | 0.28 mg/g
CCCCCc1cc(O)c(C/C=C(\C)CCC=C(C)C)c(O)c1C(=O)O [CBG-A, cannabigerolic acid] | no quantity of CBG-A was detected
CCCCCc1cc2c(c(O)c1C(=O)O)C1C3C(CCC3(C)O2)C1(C)C (centres unmarked) [CBL-A, cannabicyclol acid] | 0.39 mg/g
CCCCCc1cc(O)c2c(c1)OC(C)(C)c1ccc(C)cc1-2 [CBN, Cannabinol] | 1.03 mg/g
CCCCCc1cc2c(c(O)c1C(=O)O)[C@@H]1C=C(C)CC[C@H]1C(C)(C)O2 [THC-A, Tetrahydrocannabinolic acid] | 5.46 mg/g
CCCc1cc(O)c2c(c1)OC(C)(C)[C@@H]1CCC(C)=C[C@@H]21 [THCV, Tetrahydrocannabivarin] | 0.16 mg/g
CCCc1cc2c(c(O)c1C(=O)O)C1C=C(C)CCC1C(C)(C)O2 (centres unmarked) [THCV-A] | 0.02 mg/g
CCCCCc1cc(O)c2c(c1)OC(C)(C)[C@@H]1CC=C(C)C[C@@H]21 [Δ8-THC, Δ-8-tetrahydrocannabinol] | 0.06 mg/g
CCCCCc1cc(O)c2c(c1)OC(C)(C)[C@@H]1CCC(C)=C[C@@H]21 [Δ9-THC, Δ-9-tetrahydrocannabinol, reference compound] | 15.79 mg/g

Same assay, conditions: control crystalline product, sucrose, without rapid cooling process

Compound | Cannabinoid quantity in Control R104
CCCCCc1cc(O)c2c(c1)OC(C)(CCC=C(C)C)C=C2 (centres unmarked) [CBC, Cannabichromene] | 0.8 mg/g
C=C(C)[C@@H]1CCC(C)=C[C@H]1c1c(O)cc(CCCCC)cc1O [CBD, Cannabidiol, reference compound] | 0.17 mg/g
C=C(C)[C@@H]1CCC(C)=C[C@H]1c1c(O)cc(CCCCC)c(C(=O)O)c1O [CBD-A, Cannabidiolic acid] | undetectable quantities
CCCCCc1cc(O)c(C/C=C(\C)CCC=C(C)C)c(O)c1 [CBG, Cannabigerol] | 0.82 mg/g
CCCCCc1cc(O)c(C/C=C(\C)CCC=C(C)C)c(O)c1C(=O)O [CBG-A, cannabigerolic acid] | undetectable quantities
CCCCCc1cc(O)c2c(c1)OC(C)(C)c1ccc(C)cc1-2 [CBN, Cannabinol] | 0.57 mg/g
CCCc1cc(O)c2c(c1)OC(C)(C)[C@@H]1CCC(C)=C[C@@H]21 [THCV, Tetrahydrocannabivarin] | 0.34 mg/g
CCCc1cc2c(c(O)c1C(=O)O)C1C=C(C)CCC1C(C)(C)O2 (centres unmarked) [THCV-A] | undetectable quantities
CCCCCc1cc(O)c2c(c1)OC(C)(C)[C@@H]1CC=C(C)C[C@@H]21 [Δ8-THC, Δ-8-tetrahydrocannabinol] | 1.7 mg/g
CCCCCc1cc(O)c2c(c1)OC(C)(C)[C@@H]1CCC(C)=C[C@@H]21 [Δ9-THC, Δ-9-tetrahydrocannabinol, reference compound] | 35.37 mg/g

Same assay, conditions: crystalline product, sodium chloride, with rapid cooling process

Compound | Cannabinoid quantity in Sample S201
CCCCCc1cc(O)c2c(c1)OC(C)(CCC=C(C)C)C=C2 (centres unmarked) [CBC, Cannabichromene] | 0.84 mg/g
C=C(C)[C@@H]1CCC(C)=C[C@H]1c1c(O)cc(CCCCC)cc1O [CBD, Cannabidiol, reference compound] | 0.11 mg/g
CCCCCc1cc(O)c(C/C=C(\C)CCC=C(C)C)c(O)c1 [CBG, Cannabigerol] | 0.93 mg/g
CCCCCc1cc(O)c2c(c1)OC(C)(C)c1ccc(C)cc1-2 [CBN, Cannabinol] | 0.79 mg/g
CCCc1cc(O)c2c(c1)OC(C)(C)[C@@H]1CCC(C)=C[C@@H]21 [THCV, Tetrahydrocannabivarin] | 0.41 mg/g
CCCCCc1cc(O)c2c(c1)OC(C)(C)[C@@H]1CCC(C)=C[C@@H]21 [Δ9-THC, Δ-9-tetrahydrocannabinol, reference compound] | 40.04 mg/g

Same assay, conditions: crystalline product, sodium chloride, without rapid cooling process, from RB-Fat

Compound | Cannabinoid quantity in Sample S103
CCCCCc1cc(O)c2c(c1)OC(C)(CCC=C(C)C)C=C2 (centres unmarked) [CBC, Cannabichromene] | 0.94 mg/g
C=C(C)[C@@H]1CCC(C)=C[C@H]1c1c(O)cc(CCCCC)cc1O [CBD, Cannabidiol, reference compound] | 0.22 mg/g
CCCCCc1cc(O)c(C/C=C(\C)CCC=C(C)C)c(O)c1 [CBG, Cannabigerol] | 0.58 mg/g
CCCCCc1cc(O)c2c(c1)OC(C)(C)c1ccc(C)cc1-2 [CBN, Cannabinol] | 2.33 mg/g
CCCc1cc(O)c2c(c1)OC(C)(C)[C@@H]1CCC(C)=C[C@@H]21 [THCV, Tetrahydrocannabivarin] | 0.51 mg/g
CCCCCc1cc(O)c2c(c1)OC(C)(C)[C@@H]1CCC(C)=C[C@@H]21 [Δ9-THC, Δ-9-tetrahydrocannabinol, reference compound] | 21.93 mg/g and 21.92 mg/g

Same assay, conditions: crystalline product, sucrose, with rapid cooling process; original test

Compound | Cannabinoid quantity in Sample R104A
CCCCCc1cc(O)c2c(c1)OC(C)(CCC=C(C)C)C=C2 (centres unmarked) [CBC, Cannabichromene] | 1.18 mg/g
C=C(C)[C@@H]1CCC(C)=C[C@H]1c1c(O)cc(CCCCC)cc1O [CBD, Cannabidiol, reference compound] | 0.08 mg/g
C=C(C)[C@@H]1CCC(C)=C[C@H]1c1c(O)cc(CCCCC)c(C(=O)O)c1O [CBD-A, Cannabidiolic acid] | negligible or no detectable quantities
CCCCCc1cc(O)c(C/C=C(\C)CCC=C(C)C)c(O)c1 [CBG, Cannabigerol] | 1.34 mg/g
CCCCCc1cc(O)c(C/C=C(\C)CCC=C(C)C)c(O)c1C(=O)O [CBG-A, cannabigerolic acid] | negligible or no detectable quantities
CCCCCc1cc(O)c2c(c1)OC(C)(C)c1ccc(C)cc1-2 [CBN, Cannabinol] | 1.17 mg/g
CCCc1cc(O)c2c(c1)OC(C)(C)[C@@H]1CCC(C)=C[C@@H]21 [THCV, Tetrahydrocannabivarin] | 0.54 mg/g
CCCc1cc2c(c(O)c1C(=O)O)C1C=C(C)CCC1C(C)(C)O2 (centres unmarked) [THCV-A] | negligible or no detectable quantities
CCCCCc1cc(O)c2c(c1)OC(C)(C)[C@@H]1CC=C(C)C[C@@H]21 [Δ8-THC, Δ-8-tetrahydrocannabinol] | no detectable quantities
CCCCCc1cc(O)c2c(c1)OC(C)(C)[C@@H]1CCC(C)=C[C@@H]21 [Δ9-THC, Δ-9-tetrahydrocannabinol, reference compound] | 57.13 mg/g

Same assay, conditions: crystalline product, sucrose, with rapid cooling process; retest

Compound | Cannabinoid quantity in (Retest) Sample R104A
CCCCCc1cc(O)c2c(c1)OC(C)(CCC=C(C)C)C=C2 (centres unmarked) [CBC, Cannabichromene] | 1.15 mg/g
C=C(C)[C@@H]1CCC(C)=C[C@H]1c1c(O)cc(CCCCC)cc1O [CBD, Cannabidiol, reference compound] | 0.15 mg/g
CCCCCc1cc(O)c(C/C=C(\C)CCC=C(C)C)c(O)c1 [CBG, Cannabigerol] | 1.29 mg/g
CCCCCc1cc(O)c2c(c1)OC(C)(C)c1ccc(C)cc1-2 [CBN, Cannabinol] | 1.26 mg/g
CCCc1cc(O)c2c(c1)OC(C)(C)[C@@H]1CCC(C)=C[C@@H]21 [THCV, Tetrahydrocannabivarin] | 0.52 mg/g
CCCCCc1cc(O)c2c(c1)OC(C)(C)[C@@H]1CC=C(C)C[C@@H]21 [Δ8-THC, Δ-8-tetrahydrocannabinol] | 1.36 mg/g
CCCCCc1cc(O)c2c(c1)OC(C)(C)[C@@H]1CCC(C)=C[C@@H]21 [Δ9-THC, Δ-9-tetrahydrocannabinol, reference compound] | 57.45 mg/g

Same assay, conditions: crystalline product, sucrose, with rapid cooling process; stored for three months before being tested

Compound | Cannabinoid quantity in Sample R104B
CCCCCc1cc(O)c2c(c1)OC(C)(CCC=C(C)C)C=C2 (centres unmarked) [CBC, Cannabichromene] | 1.22 mg/g
C=C(C)[C@@H]1CCC(C)=C[C@H]1c1c(O)cc(CCCCC)cc1O [CBD, Cannabidiol, reference compound] | 0.17 mg/g
CCCCCc1cc(O)c(C/C=C(\C)CCC=C(C)C)c(O)c1 [CBG, Cannabigerol] | 1.25 mg/g
CCCCCc1cc(O)c2c(c1)OC(C)(C)c1ccc(C)cc1-2 [CBN, Cannabinol] | 1.28 mg/g
CCCc1cc(O)c2c(c1)OC(C)(C)[C@@H]1CCC(C)=C[C@@H]21 [THCV, Tetrahydrocannabivarin] | 0.55 mg/g
CCCCCc1cc(O)c2c(c1)OC(C)(C)[C@@H]1CC=C(C)C[C@@H]21 [Δ8-THC, Δ-8-tetrahydrocannabinol] | 0.14 mg/g
CCCCCc1cc(O)c2c(c1)OC(C)(C)[C@@H]1CCC(C)=C[C@@H]21 [Δ9-THC, Δ-9-tetrahydrocannabinol, reference compound] | 60.42 mg/g

Same assay, conditions: crystalline product, sucrose, without rapid cooling process, from RB Fat

Compound | Cannabinoid quantity in Sample R103A | Cannabinoid quantity in Sample R103B
CCCCCc1cc(O)c2c(c1)OC(C)(CCC=C(C)C)C=C2 (centres unmarked) [CBC, Cannabichromene] | 0.47 mg/g | 0.45 mg/g
CCCCCc1cc(O)c(C/C=C(\C)CCC=C(C)C)c(O)c1 [CBG, Cannabigerol] | 0.32 mg/g | 0.26 mg/g
CCCCCc1cc2c(c(O)c1C(=O)O)C1C3C(CCC3(C)O2)C1(C)C (centres unmarked) [CBL-A, cannabicyclol acid] | 0.46 mg/g | 0.35 mg/g
CCCCCc1cc(O)c2c(c1)OC(C)(C)c1ccc(C)cc1-2 [CBN, Cannabinol] | 0.93 mg/g | 1 mg/g
CCCCCc1cc2c(c(O)c1C(=O)O)[C@@H]1C=C(C)CC[C@H]1C(C)(C)O2 [THC-A, Tetrahydrocannabinolic acid] | 7.13 mg/g | 6.18 mg/g
CCCc1cc(O)c2c(c1)OC(C)(C)[C@@H]1CCC(C)=C[C@@H]21 [THCV, Tetrahydrocannabivarin] | 0.14 mg/g | 0.2 mg/g
CCCc1cc2c(c(O)c1C(=O)O)C1C=C(C)CCC1C(C)(C)O2 (centres unmarked) [THCV-A] | 0.05 mg/g | –
CCCCCc1cc(O)c2c(c1)OC(C)(C)[C@@H]1CCC(C)=C[C@@H]21 [Δ9-THC, Δ-9-tetrahydrocannabinol, reference compound] | 15.56 mg/g | 16.18 mg/g

Same assay, conditions: sodium chloride; with vs without rapid cooling process

Compound | Change in cannabinoid quantity, Sample S201 compared to Sample S103
CCCCCc1cc(O)c2c(c1)OC(C)(CCC=C(C)C)C=C2 (centres unmarked) [CBC, Cannabichromene] | marginal differences
C=C(C)[C@@H]1CCC(C)=C[C@H]1c1c(O)cc(CCCCC)cc1O [CBD, Cannabidiol, reference compound] | marginal differences
CCCCCc1cc(O)c(C/C=C(\C)CCC=C(C)C)c(O)c1 [CBG, Cannabigerol] | marginal differences
CCCCCc1cc(O)c2c(c1)OC(C)(C)c1ccc(C)cc1-2 [CBN, Cannabinol] | significant reduction
CCCc1cc(O)c2c(c1)OC(C)(C)[C@@H]1CCC(C)=C[C@@H]21 [THCV, Tetrahydrocannabivarin] | marginal differences
CCCCCc1cc(O)c2c(c1)OC(C)(C)[C@@H]1CCC(C)=C[C@@H]21 [Δ9-THC, Δ-9-tetrahydrocannabinol, reference compound] | two-fold increase

Same assay, conditions: sucrose; rapid cooling process vs Control R104

Compound | Increase in quantity, Sample R104A compared to the control sample
CCCCCc1cc(O)c2c(c1)OC(C)(C)[C@@H]1CCC(C)=C[C@@H]21 [Δ9-THC, Δ-9-tetrahydrocannabinol, reference compound] | 62%

Assay: Cannabinoid profile of the cannabis extract by LCMS analysis
Settings: cannabis extract labeled RB Fat

Compound | Cannabinoid quantity in Sample RB Fat
CCCCCc1cc(O)c2c(c1)OC(C)(CCC=C(C)C)C=C2 (centres unmarked) [CBC, Cannabichromene] | 0.63 mg/mL
C=C(C)[C@@H]1CCC(C)=C[C@H]1c1c(O)cc(CCCCC)c(C(=O)O)c1O [CBD-A, Cannabidiolic acid] | 0.12 mg/mL
CCCCCc1cc(O)c(C/C=C(\C)CCC=C(C)C)c(O)c1 [CBG, Cannabigerol] | 0.69 mg/mL
CCCCCc1cc(O)c(C/C=C(\C)CCC=C(C)C)c(O)c1C(=O)O [CBG-A, cannabigerolic acid] | 1.22 mg/mL
CCCCCc1cc2c(c(O)c1C(=O)O)C1C3C(CCC3(C)O2)C1(C)C (centres unmarked) [CBL-A, cannabicyclol acid] | 0.38 mg/mL
CCCCCc1cc(O)c2c(c1)OC(C)(C)c1ccc(C)cc1-2 [CBN, Cannabinol] | 0.3 mg/mL
CCCCCc1cc2c(c(O)c1C(=O)O)[C@@H]1C=C(C)CC[C@H]1C(C)(C)O2 [THC-A, Tetrahydrocannabinolic acid] | 37.07 mg/mL
CCCc1cc2c(c(O)c1C(=O)O)C1C=C(C)CCC1C(C)(C)O2 (centres unmarked) [THCV-A] | 0.26 mg/mL
CCCCCc1cc(O)c2c(c1)OC(C)(C)[C@@H]1CCC(C)=C[C@@H]21 [Δ9-THC, Δ-9-tetrahydrocannabinol, reference compound] | 12.85 mg/mL
